The values below come from patent US4814329A, “Antihyperlipoproteinemic 5-substituted sulfur-containing benzimidazole derivatives” (Richter Gedeon Vegyeszeti Gyar R.T., priority 1985, dated 1989).

In assay [1] the test system is rats fed with cholesterol. Put plainly: in vivo antihyperlipoproteinemic test, rats fed cholesterol fodder for 7 days (Table 1). Also noted: species or system Whistar hannover male rats. As to conditions: rat; for change in vivo at 30 mg/kg / change in vivo at 100 mg/kg: po; for change in vivo at 30 mg/kg: 30.0 mg/kg p.o.; for change in vivo at 100 mg/kg: 100.0 mg/kg p.o. The text has this: (§1) Whistar hannover male rats weighing 140-160 g were fed for 7 days with a rat fodder supplemented with 1.5% of cholesterol, 0.5% of sodium cholate and 5% of solid fat. (Schurr, P. E.; Schultz, J. R., Day, D. E.; Atherosclerosis Drug Discovery Ed.: C. E. Day, Plenum, New York 215 (1976) and Acta Pharm. Hung., 49, 182. (1979) During this time the total cholesterol level of the serum increased with 200-250% compared to the normal level, while the amount of the HDL chloesterol diminished by 45-50%. Groups consisting of six animals were formed. The compounds of the invention were administered orally starting on the fourth day of the addition of the cholesterol fodder and it was continued by the end of the experiments, by the seventh day, in one or two doses. Then after a 18 hour starving the animals were bled to death under etheric narcosis on the 8th day. The blood samples were centrifuged and the serum total cholesterol and the HDL cholesterol were determined by Backmann enzymatic test, while the triglyceride concentration of the serum was determined by Van Handel's method (J. Lab.: Clin. Med. 41, 486 (1953). The amount of the LDL+VLDL was measured by manganese precipitation turbidimetrically (Schurr, P. E., Schulz, J. R., Day, C. E.: Atherosclerosis Drug Discovery Ed.: C. E. Day, Plenum Press, New York 215 (1976). The antiaggreagtion activity was measured in vitro on human plasm being rich in thrombocytes by a Chrono-log aggregometer. The aggregation was induced by ADP, adrenaline, collagen and arachidonic acid. […]. The lipidperoxidation was induced by N-ethyl-alenicimide (Arzneimittel-Forschung 29, 981 (1979).

Assay [2] concerns rats with the cholesterol diet. Put plainly: in vivo test in rats with the cholesterol diet, 10 day treatments (Table 2). To be noted: rat, 10 day treatment, 100.0 mg/kg p.o. As for the experimental part: as §1, with “Whistar hannover male rats weighing 140-160 g were fed for 7 days with a rat fodder supplemented with 1.5% of cholesterol, 0.5% of sodium cholate and 5% of solid fat.” left out, “The compounds of the invention were administered orally starting on the fourth day of the addition of the cholesterol fodder and it was continued by the end of the experiments, by the seventh day, in one or two doses.” left out
The affect of compound no. 0202479 to the rats with the
cholesterol diet in 10 day treatments

Another assay concerns platelet aggregation. As to conditions: cited from earlier work.
Where [3] appears, read: read-out: HDL cholesterol % change.
The mark [4] stands for this setting: read-out: serum cholesterol change.
The mark [5] stands for this setting: serum, read-out: triglyceride change.

The structures appear in SMILES notation. Counter-ions that a name gives are not always drawn. Like-named read-outs stand apart in the source and are kept apart here.

As for `CC(=O)CSc1nc2ccc(Cc3ccccc3)cc2[nH]1` [compound 0202002, 1-((5-benzyl-2-benzimidazolyl)thio)-2-propanone], the change in vivo at 30 mg/kg in assay [1] (setting [3]) was -16.9%; in assay [1] (read-out: LDL + VLDL % change), -0.38%; in assay [1] (setting [4]), -22%; in assay [1] (setting [5]), 27.8%. Moreover, the change in vivo at 100 mg/kg in assay [1] (setting [3]) was -16.9%; in assay [1] (read-out: LDL + VLDL % change), -55.8%; in assay [1] (setting [4]), -68%; in assay [1] (setting [5]), -29.4%.

As to `OCCSc1nc2ccc(Cc3ccccc3)cc2[nH]1` [compound 0202377, 5-Benzyl-2-(2-hydroxyethylthio)-benzimidazole], in assay [1] (setting [3]), the change in vivo at 30 mg/kg was -13.5% and the change in vivo at 100 mg/kg was 61.2%. In assay [1] (read-out: LDL + VLDL % change), the change in vivo at 30 mg/kg was 1% and the change in vivo at 100 mg/kg was -14.5%. Besides, in assay [1] (setting [4]), the change in vivo at 30 mg/kg is -36.5% and the change in vivo at 100 mg/kg is -52.4%. In assay [1] (setting [5]), the change in vivo at 30 mg/kg was 58% and the change in vivo at 100 mg/kg is 116%. In addition, in assay [1] (100 mg/kg), the “LDL+VLDL level, in words” value was “decreased is smaller extent”; the “decrease of the total serum cholesterol level” value was found to be 52.4; the “increase of HDL(-cholesterol)” value came to 61.2%.

In the case of `CC(=O)CCn1c(=S)[nH]c2cc(Cc3ccccc3)ccc21` [compound 0200427, 1-(5-Benzyl-2-thioxo-1-benzimidazolyl)-3-butanone], in assay [1] (setting [3]), the change in vivo at 30 mg/kg is -17.7% and the change in vivo at 100 mg/kg was -12.1%. Further, in assay [1] (read-out: LDL + VLDL % change), the change in vivo at 30 mg/kg was -58.2% and the change in vivo at 100 mg/kg was -54.4%. In assay [1] (setting [4]), the change in vivo at 30 mg/kg is -45.5% and the change in vivo at 100 mg/kg was -51.7%. For the same compound, in assay [1] (setting [5]), the change in vivo at 30 mg/kg was -63.5% and the change in vivo at 100 mg/kg is -67.2%. Moreover, in assay [1] (100 mg/kg), the “HDL level, in words” value was “decreased the HDL level, though in smaller extent”; the “decrease of the LDL+VLDL level” value is listed as 54.4%; the “decrease of the serum triglyceride” value is recorded as 67.2%; the “decrease of the total serum cholesterol level” value is 51.7%. Also, the “overall lipid/lipoprotein activity, in words” value in assay [1] (100 mg/kg) was “Especially great serum lipid decreasing activity”.

In the case of `O=C(O)CC(Sc1nc2ccc(C(=O)c3ccccc3)cc2[nH]1)C(=O)O` (stereo not drawn) [compound 0200086, S-(5-Benzoyl-2-benzimidazolyl)-2-thio-succinic acid], the change in vivo at 30 mg/kg in assay [1] (setting [3]) is -35%; in assay [1] (read-out: LDL + VLDL % change), -22.1%; in assay [1] (setting [4]), -26%; in assay [1] (setting [5]), -24.9%. Further, the change in vivo at 100 mg/kg was 19.4% in assay [1] (setting [3]), -24.8% in assay [1] (read-out: LDL + VLDL % change), -35.4% in assay [1] (setting [4]) and -27.2% in assay [1] (setting [5]).

Regarding `Br.C=CCSc1nc2ccc(Cc3ccccc3)cc2[nH]1` [compound 0202154, 5-Benzyl-2-(2-propenylthio)-benzimidazole hydrobromide], in assay [1] (setting [3]), the change in vivo at 30 mg/kg was found to be 27% and the change in vivo at 100 mg/kg turned out to be 71.3%. Moreover, in assay [1] (read-out: LDL + VLDL % change), the change in vivo at 30 mg/kg is -38.1% and the change in vivo at 100 mg/kg is -57.5%. Besides, in assay [1] (setting [4]), the change in vivo at 30 mg/kg is -34.5% and the change in vivo at 100 mg/kg was -49.3%. Also, in assay [1] (setting [5]), the change in vivo at 30 mg/kg was -30% and the change in vivo at 100 mg/kg was -25.3%. Also, in assay [1] (100 mg/kg), the “decrease of the LDL+VLDL level” value is 57.5%, the “decrease of the serum triglyceride” value stood at 25.3%, the “decrease of the total serum cholesterol level” value is given as 49.3% and the “increase of HDL(-cholesterol)” value is 71.3%. Moreover, the “overall lipid/lipoprotein activity, in words” value in assay [1] (100 mg/kg) was “very effective”.

Turning to `O=C(O)CC(Sc1nc2ccc(Cc3ccccc3)cc2[nH]1)C(=O)O` (stereo not drawn) [compound 0200131, S-(5-Benzyl-2-benzimidazolyl)-2-thio-succinic acid], the change in vivo at 30 mg/kg in assay [1] (setting [3]) is 10%; in assay [1] (read-out: LDL + VLDL % change), -17.5%; in assay [1] (setting [4]) it was -17.4%; in assay [1] (setting [5]), -18.8%. Besides, the change in vivo at 100 mg/kg in assay [1] (setting [3]) was 57%; in assay [1] (read-out: LDL + VLDL % change), -5.9%; in assay [1] (setting [4]), -16.9%; in assay [1] (setting [5]), -25.4%.

`CC(=O)CCn1c(=S)n(CCC(C)=O)c2cc(Cc3ccccc3)ccc21` [compound 0200058, 1,3-bis(3-Oxo-butyl)-5-benzyl-2-thioxo-benzimidazole]: the change in vivo at 30 mg/kg in assay [1] (setting [3]) was 30%; in assay [1] (read-out: LDL + VLDL % change), -19.4%; in assay [1] (setting [4]), -14%; in assay [1] (setting [5]), 1%. For the same compound, the change in vivo at 100 mg/kg was 44.9% in assay [1] (setting [3]), -9.4% in assay [1] (read-out: LDL + VLDL % change), -10.6% in assay [1] (setting [4]) and 12.8% in assay [1] (setting [5]). Also, the “increase of HDL(-cholesterol)” value in assay [1] (100 mg/kg) came to 45%. The “total cholesterol of the serum, in words” value in assay [1] (100 mg/kg) is reported as “smaller decrease of the level of the total cholesterol of the serum”.

As to `C#CCSc1nc2ccc(Cc3ccccc3)cc2[nH]1` [compound 0202647, 5-Benzyl-2-(2-propinylthio)-benzimidazole], in assay [1] (100 mg/kg), the “decrease of the LDL+VLDL level” value worked out at 41.5; the “decrease of the total serum cholesterol level” value was 34.5; the “increase of HDL(-cholesterol)” value was 49%; the “overall lipid/lipoprotein activity, in words” value is “especially excellent activity”.

Consider `CCOC(=O)CC(=O)CSc1nc2ccc(Cc3ccccc3)cc2[nH]1` [compound 0203232, 4-[(5-Benzyl-2-benzimidazolyl)thio]acetoacetic acid ethylester hydrochloride], for which the change in vivo at 30 mg/kg in assay [1] (setting [3]) was 6.8%; in assay [1] (read-out: LDL + VLDL % change), -27.6%; in assay [1] (setting [4]) it was -32.1%; in assay [1] (setting [5]), 29.3%. Besides, the change in vivo at 100 mg/kg in assay [1] (setting [3]) was 6.8%; in assay [1] (read-out: LDL + VLDL % change) it was -45.9%; in assay [1] (setting [4]), -48.6%; in assay [1] (setting [5]), -18.3%.

Turning to `OCCCSc1nc2ccc(Cc3ccccc3)cc2[nH]1` [compound 0202367, 5-Benzyl-2-(3-hydroxypropylthio)-benzimidazole], the change in vivo at 30 mg/kg is 47.1% in assay [1] (setting [3]), -45.2% in assay [1] (read-out: LDL + VLDL % change), -37.4% in assay [1] (setting [4]) and -19% in assay [1] (setting [5]). In addition, the change in vivo at 100 mg/kg in assay [1] (setting [3]) is 26%; in assay [1] (read-out: LDL + VLDL % change), -50.7%; in assay [1] (setting [4]), -42.6%; in assay [1] (setting [5]), -16.1%.

As to `CCOC(=O)C(C)(C)Oc1ccc(Cl)cc1` [Clofibrate, 2-(4-chlorophenoxy)isobutyric ethyl ester, reference compound], in assay [2], the “Serum cholesterol percentile change” value is on record as -23.0 percentile change. Further, the “HDL cholesterol percentile change” value in assay [2] (** P 0.01) is -7.4 percentile change. For the same compound, the “LDL + VLDL percentile change” value in assay [2] (** P 0.01) is -37.9 percentile change. In assay [2] (** P 0.01), this compound registered a triglyceride percentile change of -24.5 percentile change. The change in vivo at 100 mg/kg is -20% in assay [1] (setting [3]), -11.2% in assay [1] (read-out: LDL + VLDL % change), -24.7% in assay [1] (setting [4]) and -20% in assay [1] (setting [5]). Moreover, the IC50 with platelet aggregation (ADP induced aggregation, read-out: medium inhibitory concentration, ADP) was 100 µM; with platelet aggregation (adrenaline induced aggregation, read-out: medium inhibitory concentration, Adrenaline), 700 µM; with platelet aggregation (arachidonic acid induced aggregation, read-out: medium inhibitory concentration, Arachidonic acid), 5000 µM; in the assay with platelet aggregation (collagen induced aggregation, read-out: medium inhibitory concentration, Collagene) it was 1700 µM. The “inhibition of aggregation induced by arachidonic acid, in words” value with platelet aggregation (compared with compound at 250 μM) is given as “ineffective”.
